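Five concentrations, 48 hours, 96-well plates. The concentration for 50% growth inhibition is given as GI50.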 The source made the active and inactive calls. Rule as the data show it: active = GI50 up to about 1.1 µM and inactive = higher.
Experiments:
Assay in all cases: growth of human tumour cells (NCI), 48 h
KM-20L2 = system: KM-20L2
UACC-257 = system: UACC-257
HT-29 = system: HT-29
OVCAR-8 = system: OVCAR-8
U-251 = system: U-251
SN12C = system: SN12C
CAKI-1 = system: CAKI-1
NCI-H522 = system: NCI-H522
SK-MEL-28 = system: SK-MEL-28
DMS-273 = system: DMS-273
SK-MEL-2 = system: SK-MEL-2
SR = system: SR
UACC-62 = system: UACC-62
A498 = system: A498
786-0 = system: 786-0
OVCAR-3 = system: OVCAR-3
HCT-116 = system: HCT-116
HCC 2998 = system: HCC 2998
SNB-75 = system: SNB-75
SK-MEL-5 = system: SK-MEL-5
OVCAR-4 = system: OVCAR-4
Malme-3M = system: Malme-3M
LOX IMVI = system: LOX IMVI
ACHN = system: ACHN
RXF 631 = system: RXF 631
DMS-114 = system: DMS-114
HCT-15 = system: HCT-15
UO-31 = system: UO-31
EKVX = system: EKVX
HOP-92 = system: HOP-92
NCI-H226 = system: NCI-H226
XF498 = system: XF498
M19-MEL = system: M19-MEL
SNB-78 = system: SNB-78
HOP-18 = system: HOP-18
NCI-H460 = system: NCI-H460
HL-60 = system: HL-60
LXFL 529 = system: LXFL 529
MOLT-4 = system: MOLT-4
OVCAR-5 = system: OVCAR-5
SNB-19 = system: SNB-19
SF-295 = system: SF-295
HOP-62 = system: HOP-62
K562 = system: K562
M14 = system: M14
SF-539 = system: SF-539
DLD-1 = system: DLD-1
SW-620 = system: SW-620
IGROV-1 = system: IGROV-1
KM12 = system: KM12
SF-268 = system: SF-268
COLO 205 = system: COLO 205
SK-OV-3 = system: SK-OV-3
CCRF-CEM = system: CCRF-CEM
TK-10 = system: TK-10
NCI-H23 = system: NCI-H23
RPMI-8226 = system: RPMI-8226
A549 = system: A549
RXF 393 = system: RXF 393

CCCCCCCC/C=C1\CCC(CN(C)C)C1=O (stereo not given)
GI50 (KM-20L2): 7.6 µM (inactive)
GI50 (UACC-257): 5.89 µM (inactive)
GI50 (HT-29): 4.35 µM (inactive)
GI50 (OVCAR-8): 3.23 µM (inactive)
GI50 (U-251): 2.14 µM (inactive)
GI50 (SN12C): 4.02 µM (inactive)
GI50 (CAKI-1): 3.1 µM (inactive)
GI50 (NCI-H522): 3.54 µM (inactive)
GI50 (SK-MEL-28): 3.89 µM (inactive)
GI50 (DMS-273): 2.43 µM (inactive)
GI50 (SK-MEL-2): 12 µM (inactive)
GI50 (SR): 3.15 µM (inactive)
GI50 (UACC-62): 7.41 µM (inactive)
GI50 (A498): 16.5 µM (inactive)
GI50 (786-0): 1.53 µM (inactive)
GI50 (OVCAR-3): 7.18 µM (inactive)
GI50 (HCT-116): 2.96 µM (inactive)
GI50 (HCC 2998): 9.57 µM (inactive)
GI50 (SNB-75): 5.25 µM (inactive)
GI50 (SK-MEL-5): 8.45 µM (inactive)
GI50 (OVCAR-4): 13.7 µM (inactive)
GI50 (Malme-3M): 3.18 µM (inactive)
GI50 (LOX IMVI): 1.92 µM (inactive)
GI50 (ACHN): 6.61 µM (inactive)
GI50 (RXF 631): 5.64 µM (inactive)
GI50 (DMS-114): 4.01 µM (inactive)
GI50 (HCT-15): 2.77 µM
GI50 (UO-31): 11 µM (inactive)
GI50 (EKVX): 9.06 µM (inactive)
GI50 (HOP-92): 3.33 µM (inactive)
GI50 (NCI-H226): 22.3 µM (inactive)
GI50 (XF498): 6.22 µM (inactive)
GI50 (M19-MEL): 3.36 µM (inactive)
GI50 (SNB-78): 7.45 µM (inactive)
GI50 (HOP-18): 19.5 µM (inactive)
GI50 (NCI-H460): 10.7 µM (inactive)
GI50 (HL-60): 5.05 µM (inactive)
GI50 (LXFL 529): 1.61 µM (inactive)
GI50 (MOLT-4): 2.68 µM (inactive)
GI50 (OVCAR-5): 20.2 µM (inactive)
GI50 (SNB-19): 16.7 µM (inactive)
GI50 (SF-295): 6.5 µM (inactive)
GI50 (HOP-62): 12.2 µM (inactive)
GI50 (K562): 2.51 µM (inactive)
GI50 (M14): 4.88 µM (inactive)
GI50 (SF-539): 4.82 µM (inactive)
GI50 (DLD-1): 2.16 µM (inactive)
GI50 (SW-620): 3.33 µM (inactive)
GI50 (IGROV-1): 8.17 µM (inactive)
GI50 (KM12): 2.31 µM (inactive)
GI50 (SF-268): 7.29 µM (inactive)
GI50 (COLO 205): 4.16 µM (inactive)
GI50 (SK-OV-3): 17.2 µM (inactive)
GI50 (CCRF-CEM): 1.54 µM (inactive)
GI50 (TK-10): 2.54 µM (inactive)
GI50 (NCI-H23): 10.7 µM (inactive)
GI50 (RPMI-8226): 0.211 µM (active)
GI50 (A549): 19.3 µM (inactive)

CCOC(=O)[C@H]1Nc2c(cccc2[N+](=O)[O-])[C@H]2OCC[C@@H]12
GI50 (KM-20L2): > 100 µM (inactive)
GI50 (UACC-257): 11.5 µM (inactive)
GI50 (HT-29): > 100 µM (inactive)
GI50 (OVCAR-8): > 100 µM (inactive)
GI50 (U-251): > 100 µM (inactive)
GI50 (SN12C): > 100 µM (inactive)
GI50 (CAKI-1): > 100 µM (inactive)
GI50 (NCI-H522): > 100 µM (inactive)
GI50 (SK-MEL-28): > 100 µM (inactive)
GI50 (DMS-273): > 100 µM (inactive)
GI50 (SK-MEL-2): > 100 µM (inactive)
GI50 (SR): > 100 µM (inactive)
GI50 (UACC-62): > 100 µM (inactive)
GI50 (OVCAR-3): > 100 µM (inactive)
GI50 (HCT-116): > 100 µM (inactive)
GI50 (HCC 2998): > 100 µM (inactive)
GI50 (SNB-75): > 100 µM (inactive)
GI50 (SK-MEL-5): > 100 µM (inactive)
GI50 (OVCAR-4): > 100 µM (inactive)
GI50 (Malme-3M): > 100 µM (inactive)
GI50 (LOX IMVI): > 100 µM (inactive)
GI50 (ACHN): > 100 µM (inactive)
GI50 (RXF 631): > 100 µM (inactive)
GI50 (DMS-114): > 100 µM (inactive)
GI50 (HCT-15): > 100 µM
GI50 (UO-31): > 100 µM (inactive)
GI50 (EKVX): > 100 µM (inactive)
GI50 (NCI-H226): > 100 µM (inactive)
GI50 (XF498): > 100 µM (inactive)
GI50 (M19-MEL): > 100 µM (inactive)
GI50 (SNB-78): > 100 µM (inactive)
GI50 (HOP-18): > 100 µM (inactive)
GI50 (NCI-H460): > 100 µM (inactive)
GI50 (LXFL 529): > 100 µM (inactive)
GI50 (RXF 393): > 100 µM (inactive)
GI50 (MOLT-4): > 100 µM (inactive)
GI50 (OVCAR-5): > 100 µM (inactive)
GI50 (SNB-19): > 100 µM (inactive)
GI50 (SF-295): > 100 µM (inactive)
GI50 (HOP-62): > 100 µM (inactive)
GI50 (K562): > 100 µM (inactive)
GI50 (M14): > 100 µM (inactive)
GI50 (SF-539): > 100 µM (inactive)
GI50 (DLD-1): > 100 µM (inactive)
GI50 (SW-620): > 100 µM (inactive)
GI50 (IGROV-1): > 100 µM (inactive)
GI50 (KM12): > 100 µM (inactive)
GI50 (SF-268): > 100 µM (inactive)
GI50 (COLO 205): > 100 µM (inactive)
GI50 (TK-10): > 100 µM (inactive)
GI50 (NCI-H23): > 100 µM (inactive)
GI50 (RPMI-8226): > 100 µM (inactive)
GI50 (A549): > 100 µM (inactive)

O=c1c(O)c(-c2ccc(O)c(O)c2)oc2cc(O)cc(O)c12 [QUERCETIN]
GI50 (KM-20L2): 83.6 µM (inactive)
GI50 (UACC-257): > 100 µM (inactive)
GI50 (OVCAR-8): 72.6 µM (inactive)
GI50 (U-251): 49.7 µM (inactive)
GI50 (SN12C): > 100 µM (inactive)
GI50 (CAKI-1): > 100 µM (inactive)
GI50 (NCI-H522): 84.3 µM (inactive)
GI50 (SK-MEL-28): 94.6 µM (inactive)
GI50 (DMS-273): 49.7 µM (inactive)
GI50 (SK-MEL-2): 88.5 µM (inactive)
GI50 (SR): 35.5 µM (inactive)
GI50 (UACC-62): 31.2 µM (inactive)
GI50 (A498): > 100 µM (inactive)
GI50 (786-0): 59.8 µM (inactive)
GI50 (OVCAR-3): > 100 µM (inactive)
GI50 (HCT-116): 46.1 µM (inactive)
GI50 (HCC 2998): > 100 µM (inactive)
GI50 (SNB-75): 49 µM (inactive)
GI50 (SK-MEL-5): 92 µM (inactive)
GI50 (OVCAR-4): > 100 µM (inactive)
GI50 (Malme-3M): > 100 µM (inactive)
GI50 (LOX IMVI): 18.9 µM (inactive)
GI50 (ACHN): > 100 µM (inactive)
GI50 (RXF 631): 38.1 µM (inactive)
GI50 (DMS-114): 36.5 µM (inactive)
GI50 (HCT-15): 36.8 µM
GI50 (UO-31): 77.1 µM (inactive)
GI50 (EKVX): 41.2 µM (inactive)
GI50 (XF498): 72.8 µM (inactive)
GI50 (M19-MEL): 77.8 µM (inactive)
GI50 (SNB-78): > 100 µM (inactive)
GI50 (HOP-18): > 100 µM (inactive)
GI50 (NCI-H460): 36.6 µM (inactive)
GI50 (HL-60): 21 µM (inactive)
GI50 (LXFL 529): > 100 µM (inactive)
GI50 (RXF 393): 55.7 µM (inactive)
GI50 (MOLT-4): 76.9 µM (inactive)
GI50 (OVCAR-5): > 100 µM (inactive)
GI50 (SNB-19): 61.2 µM (inactive)
GI50 (SF-295): 50.7 µM (inactive)
GI50 (HOP-62): 46.1 µM (inactive)
GI50 (K562): 67.8 µM (inactive)
GI50 (M14): > 100 µM (inactive)
GI50 (SF-539): 47.5 µM (inactive)
GI50 (DLD-1): 37.2 µM (inactive)
GI50 (SW-620): 20.3 µM (inactive)
GI50 (IGROV-1): 59.3 µM (inactive)
GI50 (KM12): 42.9 µM (inactive)
GI50 (SF-268): 46.7 µM (inactive)
GI50 (COLO 205): 33.6 µM (inactive)
GI50 (SK-OV-3): 52.7 µM (inactive)
GI50 (CCRF-CEM): 30.8 µM (inactive)
GI50 (TK-10): > 100 µM (inactive)
GI50 (A549): > 100 µM (inactive)
